# Measurements as given in US20250163054A1, “SUBSTITUTED BICYCLIC HETEROARYL COMPOUNDS USEFUL AS INHIBITORS OF TLR9” (Bristol-Myers Squibb Company, priority 2022, published 2025).
# What was measured:
# Type in all cases: cell-based
# human TLR9 = target: T1, human TLR9 (Homo sapiens, UniProt Q9NR96); test: TLR7/8/9 Inhibition Reporter Assays (TLR9); settings: HEK-Blue cells overexpressing human TLR9, SEAP reporter, stimulated with TLR9 ligand ODN2006
# T1 construct: host or cells: HEK-Blue cells (HEK293-derived reporter line)
# T1 sequence (Q9NR96 26-1032): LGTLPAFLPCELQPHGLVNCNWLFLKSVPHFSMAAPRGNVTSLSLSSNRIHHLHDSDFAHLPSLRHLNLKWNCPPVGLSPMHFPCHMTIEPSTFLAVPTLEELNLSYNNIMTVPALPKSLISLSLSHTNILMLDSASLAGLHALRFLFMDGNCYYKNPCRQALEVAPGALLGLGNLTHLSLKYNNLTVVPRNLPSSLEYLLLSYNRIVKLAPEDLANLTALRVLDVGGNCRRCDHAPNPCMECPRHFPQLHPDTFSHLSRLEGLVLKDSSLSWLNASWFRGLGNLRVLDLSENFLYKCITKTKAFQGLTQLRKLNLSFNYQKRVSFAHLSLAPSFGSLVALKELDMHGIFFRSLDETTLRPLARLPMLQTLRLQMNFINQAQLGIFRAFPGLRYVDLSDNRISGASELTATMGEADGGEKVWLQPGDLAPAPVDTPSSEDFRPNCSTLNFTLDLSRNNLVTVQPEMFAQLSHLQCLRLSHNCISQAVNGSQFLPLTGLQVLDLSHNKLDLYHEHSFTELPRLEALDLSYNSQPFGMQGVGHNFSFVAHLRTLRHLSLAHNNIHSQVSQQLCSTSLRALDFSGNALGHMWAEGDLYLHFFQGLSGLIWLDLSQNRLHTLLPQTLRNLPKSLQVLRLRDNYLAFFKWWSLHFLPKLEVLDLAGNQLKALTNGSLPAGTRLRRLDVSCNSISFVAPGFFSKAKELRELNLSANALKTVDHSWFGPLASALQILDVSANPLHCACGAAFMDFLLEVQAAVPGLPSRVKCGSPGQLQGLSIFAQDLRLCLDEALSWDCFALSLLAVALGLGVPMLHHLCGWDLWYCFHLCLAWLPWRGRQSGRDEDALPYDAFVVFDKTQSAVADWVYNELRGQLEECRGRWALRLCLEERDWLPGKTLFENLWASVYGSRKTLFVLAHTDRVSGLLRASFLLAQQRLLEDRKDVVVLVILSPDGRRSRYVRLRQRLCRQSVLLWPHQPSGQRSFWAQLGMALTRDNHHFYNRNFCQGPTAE
# Outline: (§1)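 HEK-Blue cells overexpressing human TLR7, TLR8 or TLR9 with NF-κB/AP-1-driven SEAP reporter, pre-treated 60 min with compound ([…]). Stimulated with […] (TLR7), […] (TLR8) or ODN2006 200 nM (TLR9), then 22 h at 37° C; SEAP measured, % inhibition relative to agonist-plus-DMSO and known-inhibitor wells.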
# human TLR7 = target: T2, human TLR7 (Homo sapiens, UniProt Q9NYK1); test: TLR7/8/9 Inhibition Reporter Assays (TLR7); settings: HEK-Blue cells overexpressing human TLR7, SEAP reporter, stimulated with TLR7 ligand gardiquimod
# T2 construct: host or cells: HEK-Blue cells (HEK293-derived reporter line)
# T2 sequence (Q9NYK1 27-1049): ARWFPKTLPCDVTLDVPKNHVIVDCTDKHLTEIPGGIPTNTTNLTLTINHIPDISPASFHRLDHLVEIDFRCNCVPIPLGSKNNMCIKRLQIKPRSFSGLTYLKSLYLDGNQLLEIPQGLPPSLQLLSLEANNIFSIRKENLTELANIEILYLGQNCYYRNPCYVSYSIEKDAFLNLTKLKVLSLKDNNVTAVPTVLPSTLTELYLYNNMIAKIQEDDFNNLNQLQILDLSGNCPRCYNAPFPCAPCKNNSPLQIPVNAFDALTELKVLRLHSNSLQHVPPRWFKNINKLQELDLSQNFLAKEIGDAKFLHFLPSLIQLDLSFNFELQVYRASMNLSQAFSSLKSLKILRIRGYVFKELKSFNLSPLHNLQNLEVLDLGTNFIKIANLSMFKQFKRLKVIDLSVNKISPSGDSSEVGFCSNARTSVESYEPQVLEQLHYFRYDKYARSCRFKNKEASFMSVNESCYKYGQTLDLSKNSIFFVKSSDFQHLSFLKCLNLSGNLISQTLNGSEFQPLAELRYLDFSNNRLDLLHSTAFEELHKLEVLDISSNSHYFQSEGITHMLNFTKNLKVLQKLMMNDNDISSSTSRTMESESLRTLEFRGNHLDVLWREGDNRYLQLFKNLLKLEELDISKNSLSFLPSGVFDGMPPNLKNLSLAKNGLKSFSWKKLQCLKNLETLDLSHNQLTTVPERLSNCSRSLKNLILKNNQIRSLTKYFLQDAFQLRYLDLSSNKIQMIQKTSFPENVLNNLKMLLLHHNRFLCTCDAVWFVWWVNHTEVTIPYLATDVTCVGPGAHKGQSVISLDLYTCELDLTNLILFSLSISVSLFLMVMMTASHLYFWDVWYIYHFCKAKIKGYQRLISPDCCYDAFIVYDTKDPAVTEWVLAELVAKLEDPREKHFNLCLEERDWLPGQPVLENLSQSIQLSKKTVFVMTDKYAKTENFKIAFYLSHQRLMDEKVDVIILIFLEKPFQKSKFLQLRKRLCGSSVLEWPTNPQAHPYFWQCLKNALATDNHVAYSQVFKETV
# Outline: as §1
# human TLR8 = target: T3, human TLR8 (Homo sapiens, UniProt Q9NR97); test: TLR7/8/9 Inhibition Reporter Assays (TLR8); settings: HEK-Blue cells overexpressing human TLR8, SEAP reporter, stimulated with TLR8 ligand R848
# T3 construct: host or cells: HEK-Blue cells (HEK293-derived reporter line)
# T3 sequence (Q9NR97 27-1041): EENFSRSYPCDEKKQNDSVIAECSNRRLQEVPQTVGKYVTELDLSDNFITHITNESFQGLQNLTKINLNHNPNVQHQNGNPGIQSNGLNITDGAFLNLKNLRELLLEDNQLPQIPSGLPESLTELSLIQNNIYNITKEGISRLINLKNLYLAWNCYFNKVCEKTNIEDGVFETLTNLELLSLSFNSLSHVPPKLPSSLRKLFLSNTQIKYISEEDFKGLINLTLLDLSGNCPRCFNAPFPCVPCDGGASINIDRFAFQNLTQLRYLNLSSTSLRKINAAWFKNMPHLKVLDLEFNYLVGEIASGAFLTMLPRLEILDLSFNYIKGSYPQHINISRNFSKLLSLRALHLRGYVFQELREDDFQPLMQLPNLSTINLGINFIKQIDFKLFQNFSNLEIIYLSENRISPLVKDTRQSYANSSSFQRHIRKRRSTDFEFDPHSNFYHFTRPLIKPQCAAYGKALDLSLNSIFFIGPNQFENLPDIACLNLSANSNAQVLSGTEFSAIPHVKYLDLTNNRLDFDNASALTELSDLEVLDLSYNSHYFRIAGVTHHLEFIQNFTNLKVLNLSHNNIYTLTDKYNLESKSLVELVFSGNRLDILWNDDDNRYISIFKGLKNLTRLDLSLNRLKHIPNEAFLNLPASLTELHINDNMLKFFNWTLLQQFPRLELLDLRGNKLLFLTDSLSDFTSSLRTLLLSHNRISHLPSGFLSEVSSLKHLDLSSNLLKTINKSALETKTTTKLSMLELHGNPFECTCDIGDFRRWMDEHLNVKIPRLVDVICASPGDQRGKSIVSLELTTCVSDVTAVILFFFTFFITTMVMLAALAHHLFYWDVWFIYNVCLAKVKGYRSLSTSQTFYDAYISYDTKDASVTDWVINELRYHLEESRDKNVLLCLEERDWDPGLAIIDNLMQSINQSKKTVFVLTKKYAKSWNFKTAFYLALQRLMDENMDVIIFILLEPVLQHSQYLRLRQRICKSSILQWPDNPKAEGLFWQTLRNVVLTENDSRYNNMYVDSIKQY
# Outline: as §1
Compound,IC50 (human TLR9),IC50 (human TLR7),IC50 (human TLR8)
"Cc1nc(-c2ccc(C3CCN(CC4COC4)CC3)cc2)cc2c1nc(-c1ccc(S(C)(=O)=O)cc1)n2C [Example 29, 1,4-dimethyl-2-(4-(methylsulfonyl)phenyl)-6-(4-(1-(oxetan-3-ylmethyl)piperidin-4-yl)phenyl)-1H-imidazo[4,5-c]pyridine]",1.1 µM,13 µM,> 50 µM
"Cc1nc(-c2ccc(N3CC4(C3)CN(C(C)C)C4)cc2)cc2c1nc(-c1ccc(S(C)(=O)=O)cc1)n2C [Example 78, 6-(4-(6-isopropyl-2,6-diazaspiro[3.3]heptan-2-yl)phenyl)-1,4-dimethyl-2-(4-(methylsulfonyl)phenyl)-1H-imidazo[4,5-c]pyridine]",0.13 µM,7.8 µM,6.3 µM
"COc1ccc(-c2nc3c(C)nc(-c4ccc(N5CCN(CC(C)C)CC5)cc4)cc3n2C)cc1OC [Example 17, 2-(3,4-dimethoxyphenyl)-6-(4-(4-isobutylpiperazin-1-yl)phenyl)-1,4-dimethyl-1H-imidazo[4,5-c]pyridine]",0.46 µM,4.4 µM,12 µM
"Cc1nc(-c2ccc(N3CC4(CCN(C(C)C)CC4)C3)cc2)cc2c1nc(-c1ccc(S(C)(=O)=O)cc1)n2C [Example 63, 6-(4-(7-isopropyl-2,7-diazaspiro[3.5]nonan-2-yl)phenyl)-1,4-dimethyl-2-(4-(methylsulfonyl)phenyl)-1H-imidazo[4,5-c]pyridine]",0.17 µM,1.4 µM,5.3 µM
"Cc1nc(-c2ccc(CN3CCC(N4CCOCC4)CC3)cc2)cc2c1nc(-c1ccc(S(C)(=O)=O)cc1)n2C [Example 54, 4-(1-(4-(1,4-dimethyl-2-(4-(methylsulfonyl)phenyl)-1H-imidazo[4,5-c]pyridin-6-yl)benzyl)piperidin-4-yl)morpholine]",0.24 µM,> 50 µM,9.5 µM
"COc1ccc(-c2nc3c(C)nc(-c4ccc(N5C[C@H]6CN(CC(C)C)C[C@H]6C5)cc4)cc3n2C)cc1OC [Example 65, 2-(3,4-dimethoxyphenyl)-6-(4-((3aR,6aS)-5-isobutylhexahydropyrrolo[3,4-c]pyrrol-2(1H)-yl)phenyl)-1,4-dimethyl-1H-imidazo[4,5-c]pyridine]",0.059 µM,5.4 µM,> 50 µM

# Second part, the compound after the results:
IC50 (human TLR9),IC50 (human TLR7),IC50 (human TLR8),Compound
0.34 µM,1.8 µM,12 µM,"COc1ccc(-c2nc3cnc(-c4ccc(N5CCC6(CC5)CN(C(C)C)C6)cc4)cc3n2C2CC2)cc1OC [Example 83, 1-cyclopropyl-2-(3,4-dimethoxyphenyl)-6-(4-(2-isopropyl-2,7-diazaspiro[3.5]nonan-7-yl)phenyl)-1H-imidazo[4,5-c]pyridine]"
0.74 µM,29 µM,> 25 µM,"Cn1c(-c2ccc(S(C)(=O)=O)cc2)nc2cnc(-c3ccc(N4CCC5(CC4)CN(C4COC4)C5)cc3)cc21 [Example 108, 1-methyl-2-(4-(methylsulfonyl)phenyl)-6-(4-(2-(oxetan-3-yl)-2,7-diazaspiro[3.5]nonan-7-yl)phenyl)-1H-imidazo[4,5-c]pyridine]"
0.079 µM,0.81 µM,2 µM,"Cc1nc(-c2ccc(N3C[C@H]4CN(CC(C)(C)O)C[C@H]4C3)cc2)cc2c1nc(-c1ccc(S(C)(=O)=O)cc1)n2C [Example 93, 1-((3aR,6aS)-5-(4-(1,4-dimethyl-2-(4-(methylsulfonyl)phenyl)-1H-imidazo[4,5-c]pyridin-6-yl)phenyl)hexahydropyrrolo[3,4-c]pyrrol-2(1H)-yl)-2-methylpropan-2-ol]"
0.29 µM,1.5 µM,2 µM,"CC(C)N1C[C@H]2CN(c3ccc(-c4cc5c(cn4)nc(-c4ccc(S(C)(=O)=O)cc4)n5C4CC4)cc3)C[C@H]2C1 [Example 87, 1-cyclopropyl-6-(4-((3aR,6aS)-5-isopropylhexahydropyrrolo[3,4-c]pyrrol-2(1H)-yl)phenyl)-2-(4-(methylsulfonyl)phenyl)-1H-imidazo[4,5-c]pyridine]"
0.21 µM,7.7 µM,16 µM,"COCCN1CC2(C1)CN(c1ccc(-c3cc4c(nc(-c5ccc(S(C)(=O)=O)cc5)n4C)c(C)n3)cc1)C2 [Example 104, 6-(4-(6-(2-methoxyethyl)-2,6-diazaspiro[3.3]heptan-2-yl)phenyl)-1,4-dimethyl-2-(4-(methylsulfonyl)phenyl)-1H-imidazo[4,5-c]pyridine]"
0.65 µM,3.3 µM,2.2 µM,"Cc1nc(-c2ccc(N3CC4(CCN(CC(C)(C)O)CC4)C3)cc2)cc2c1nc(-c1ccc(S(C)(=O)=O)cc1)n2C [Example 100, 1-(2-(4-(1,4-dimethyl-2-(4-(methylsulfonyl)phenyl)-1H-imidazo[4,5-c]pyridin-6-yl)phenyl)-2,7-diazaspiro[3.5]nonan-7-yl)-2-methylpropan-2-ol]"
